Test [1] deals with T1, Human Calpain 1/NS1 (Homo sapiens, UniProt P07384).
T1 sequence (P07384 1-714): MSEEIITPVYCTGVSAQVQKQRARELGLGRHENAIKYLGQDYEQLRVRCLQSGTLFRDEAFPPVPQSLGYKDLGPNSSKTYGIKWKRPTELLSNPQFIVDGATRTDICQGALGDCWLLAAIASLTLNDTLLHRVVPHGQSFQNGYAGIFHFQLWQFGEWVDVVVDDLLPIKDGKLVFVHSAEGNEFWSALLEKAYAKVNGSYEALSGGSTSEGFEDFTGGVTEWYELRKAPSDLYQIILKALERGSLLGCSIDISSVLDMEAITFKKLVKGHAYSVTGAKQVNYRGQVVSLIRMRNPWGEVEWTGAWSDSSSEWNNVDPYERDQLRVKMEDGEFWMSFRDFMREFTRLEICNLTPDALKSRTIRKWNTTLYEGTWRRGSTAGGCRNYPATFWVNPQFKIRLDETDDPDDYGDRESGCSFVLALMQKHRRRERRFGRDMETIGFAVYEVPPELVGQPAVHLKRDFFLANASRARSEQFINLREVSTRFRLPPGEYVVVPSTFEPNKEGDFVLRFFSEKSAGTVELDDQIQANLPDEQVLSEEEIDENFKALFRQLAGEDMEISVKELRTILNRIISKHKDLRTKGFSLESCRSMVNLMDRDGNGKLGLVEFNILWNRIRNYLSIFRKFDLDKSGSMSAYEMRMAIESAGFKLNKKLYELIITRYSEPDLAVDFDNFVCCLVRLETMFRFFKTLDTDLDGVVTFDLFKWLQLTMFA
T1 sequence (P04632 1-268 partner): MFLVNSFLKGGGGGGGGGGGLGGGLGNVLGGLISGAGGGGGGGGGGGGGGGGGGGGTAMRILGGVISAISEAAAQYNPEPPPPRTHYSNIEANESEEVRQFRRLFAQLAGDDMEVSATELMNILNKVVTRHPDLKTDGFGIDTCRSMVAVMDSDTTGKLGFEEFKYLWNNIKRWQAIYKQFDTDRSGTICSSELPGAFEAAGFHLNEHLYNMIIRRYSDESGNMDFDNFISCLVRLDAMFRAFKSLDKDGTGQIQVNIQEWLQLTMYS
The test is described as follows: Calpain inhibition continuous fluorescence (FRET) assay, Human Calpain 1/NS1. The class given is biochemical. The following applies: read-out: Human Calpain 1/NS1 IC50. The method, boiled down: (§1)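 Inhibitors were preincubated with calpain in 50 mM Tris pH 7.5, 100 mM NaCl, 1 mM DTT at 25C. Reactions were started with 5-FAM/QXL 520 FRET peptide substrate plus CaCl2 and read at 490/520 nm for 10 min. IC50s came from 4-parameter fits of slope rates (1-5 min).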

Test [2] concerns the target T2, Human Calpain 2/NS1 (Homo sapiens, UniProt P17655).
T2 sequence (P17655 1-700): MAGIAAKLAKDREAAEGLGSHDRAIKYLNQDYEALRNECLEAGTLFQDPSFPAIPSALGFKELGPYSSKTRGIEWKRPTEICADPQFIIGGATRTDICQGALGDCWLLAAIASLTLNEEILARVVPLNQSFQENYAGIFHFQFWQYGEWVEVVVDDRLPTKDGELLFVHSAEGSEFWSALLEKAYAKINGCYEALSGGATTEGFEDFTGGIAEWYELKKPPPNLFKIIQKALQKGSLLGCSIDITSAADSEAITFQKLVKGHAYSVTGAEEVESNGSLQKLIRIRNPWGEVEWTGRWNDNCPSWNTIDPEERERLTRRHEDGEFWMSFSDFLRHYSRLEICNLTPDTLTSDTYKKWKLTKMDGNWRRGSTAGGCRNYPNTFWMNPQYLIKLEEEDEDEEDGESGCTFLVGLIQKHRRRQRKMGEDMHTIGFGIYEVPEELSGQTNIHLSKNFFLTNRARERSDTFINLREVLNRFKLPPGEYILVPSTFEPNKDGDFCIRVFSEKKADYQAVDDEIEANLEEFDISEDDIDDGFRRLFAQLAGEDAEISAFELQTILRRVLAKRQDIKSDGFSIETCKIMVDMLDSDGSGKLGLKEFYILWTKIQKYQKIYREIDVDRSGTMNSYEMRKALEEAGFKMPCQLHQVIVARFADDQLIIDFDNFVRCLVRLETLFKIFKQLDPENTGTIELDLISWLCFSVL
T2 sequence (P04632 1-268 partner): T1 sequence (P04632 1-268 partner)
Put plainly: Calpain inhibition continuous fluorescence (FRET) assay, Human Calpain 2/NS1. The class given is biochemical. The following applies: read-out: Human Calpain 2/NS1 IC50. The method, boiled down:
as §1

Test [3] has as its target T3, Human Calpain 9/NS1 (Homo sapiens, UniProt O14815).
T3 sequence (O14815 1-690): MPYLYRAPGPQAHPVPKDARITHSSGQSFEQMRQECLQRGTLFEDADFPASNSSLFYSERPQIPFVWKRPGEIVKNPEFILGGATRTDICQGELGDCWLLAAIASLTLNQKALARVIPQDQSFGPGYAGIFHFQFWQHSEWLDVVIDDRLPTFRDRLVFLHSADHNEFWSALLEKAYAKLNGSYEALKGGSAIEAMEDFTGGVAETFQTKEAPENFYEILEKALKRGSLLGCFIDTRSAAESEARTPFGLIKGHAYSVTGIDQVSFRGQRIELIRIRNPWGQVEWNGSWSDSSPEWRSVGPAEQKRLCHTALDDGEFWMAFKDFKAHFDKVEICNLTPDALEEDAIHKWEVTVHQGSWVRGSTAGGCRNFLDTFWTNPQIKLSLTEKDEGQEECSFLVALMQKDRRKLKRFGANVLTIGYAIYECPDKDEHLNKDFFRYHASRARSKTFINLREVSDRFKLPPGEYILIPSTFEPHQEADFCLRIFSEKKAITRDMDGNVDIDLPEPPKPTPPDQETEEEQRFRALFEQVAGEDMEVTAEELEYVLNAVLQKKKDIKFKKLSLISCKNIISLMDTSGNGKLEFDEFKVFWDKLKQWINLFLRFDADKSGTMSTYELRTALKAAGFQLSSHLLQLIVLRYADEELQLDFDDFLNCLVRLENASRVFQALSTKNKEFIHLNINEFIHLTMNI
T3 sequence (P04632 1-268 partner): T1 sequence (P04632 1-268 partner)
Put plainly: Calpain inhibition continuous fluorescence (FRET) assay, Human Calpain 9/NS1. The class given is biochemical. The following applies: read-out: Human Calpain 9/NS1 IC50. The method, boiled down:
as §1

For test [4], the system named is Calpain activity in SH-SY5Y cells (SBDP-150). Put plainly: SH-SY5Y Spectrin western blot assay (SBDP-150 breakdown product, A23187-induced). The class given is cell-based. As to conditions: Homo sapiens; SH-SY5Y cells, A23187-induced SBDP-150, western blot; read-out: SH-SY5Y Spectrin IC50. A general note: In western blotting, separated proteins are transferred to a membrane and probed.

In test [5] the test system is Calpain activity in SH-SY5Y cells. Put plainly: SH-SY5Y + AMC fluorescence assay (Suc-LLVY-AMC substrate). The class given is cell-based. The following applies: read-out: SH-SY5Y + AMC IC50.

Some results are limits rather than exact numbers.

`COCCOCCOc1ccc(-n2nc(C)cc2C(=O)NC(Cc2ccccc2)C(=O)C(N)=O)cc1` (centres unmarked) [Compound 443, N-(4-amino-3,4-dioxo-1-phenylbutan-2-yl)-1-(4-(2-(2-methoxyethoxy)ethoxy)phenyl)-3-methyl-1H-pyrazole-5-carboxamide]: the IC50 in test [1] was less than 3 µM; in test [2] it was less than 3 µM; in test [3], less than 3 µM; in test [4], less than 10 µM; in test [5], 10 to 25 µM.
On to `COCCOCCOc1cccc(-n2nc(C)cc2C(=O)NC(Cc2ccccc2)C(=O)C(N)=O)c1` (centres unmarked) [Compound 444, N-(4-amino-3,4-dioxo-1-phenylbutan-2-yl)-1-(3-(2-(2-methoxyethoxy)ethoxy)phenyl)-3-methyl-1H-pyrazole-5-carboxamide], for which the IC50 in test [1] is less than 3 µM; in test [2], less than 3 µM; in test [3], less than 3 µM; in test [4] it was 10 to 25 µM; in test [5], less than 10 µM.
On to `Cc1cc(C(=O)NC(Cc2ccccc2)C(=O)C(N)=O)n(-c2ccc(C(F)(F)F)cn2)n1` (centres unmarked) [Compound 445, N-(4-amino-3,4-dioxo-1-phenylbutan-2-yl)-3-methyl-1-(5-(trifluoromethyl)pyridin-2-yl)-1H-pyrazole-5-carboxamide], for which the IC50 is less than 3 µM in test [1]; less than 3 µM in test [2]; less than 3 µM in test [3]; less than 10 µM in test [4]; more than 25 µM in test [5].
As to `Cn1cc(C(=O)NC(Cc2ccccc2)C(=O)C(N)=O)c(-c2ccc(F)cc2)n1` (centres unmarked) [Compound 447, N-(4-amino-3,4-dioxo-1-phenylbutan-2-yl)-3-(4-fluorophenyl)-1-methyl-1H-pyrazole-4-carboxamide], the IC50 was less than 3 µM in test [1]; less than 3 µM in test [2]; less than 3 µM in test [3]; 10 to 25 µM in test [4]; 10 to 25 µM in test [5].
For the molecule `Cc1cc(C(=O)NC(Cc2ccccc2)C(=O)C(=O)NC2CC2)n(-c2cnccn2)n1` (centres unmarked) [Compound 454, N-(4-(cyclopropylamino)-3,4-dioxo-1-phenylbutan-2-yl)-3-methyl-1-(pyrazin-2-yl)-1H-pyrazole-5-carboxamide], the IC50 in test [1] is less than 3 µM; in test [2], less than 3 µM; in test [3] it was 3 to 10 µM; in test [4], 10 to 25 µM; in test [5], less than 10 µM.
Turning to `Cc1cc(C(=O)NC(Cc2ccccc2)C(=O)C(=O)NC2CC2)n(-c2ncccn2)n1` (centres unmarked) [Compound 455, N-(4-(cyclopropylamino)-3,4-dioxo-1-phenylbutan-2-yl)-3-methyl-1-(pyrimidin-2-yl)-1H-pyrazole-5-carboxamide], the IC50 in test [1] was 3 to 10 µM; in test [2], less than 3 µM; in test [3] it was more than 10 µM; in test [4], more than 25 µM; in test [5] it was less than 10 µM.
For `Cc1cc(C(=O)NC(Cc2ccccc2)C(=O)C(=O)NC2CC2)n(-c2ccccn2)n1` (centres unmarked) [Compound 456, N-(4-(cyclopropylamino)-3,4-dioxo-1-phenylbutan-2-yl)-3-methyl-1-(pyridin-2-yl)-1H-pyrazole-5-carboxamide], in that order: less than 3 µM, less than 3 µM, less than 3 µM, more than 25 µM and less than 10 µM.
On to `Cn1cc(C(=O)NC(Cc2ccccc2)C(=O)C(=O)NC2CC2)c(-c2ccccc2)n1` (centres unmarked) [Compound 458, N-(4-(cyclopropylamino)-3,4-dioxo-1-phenylbutan-2-yl)-1-methyl-3-phenyl-1H-pyrazole-4-carboxamide], for which the IC50 in test [1] was less than 3 µM; in test [2] it was less than 3 µM; in test [3], less than 3 µM; in test [4], 10 to 25 µM; in test [5] it was less than 10 µM.
On to `Cc1nc(-c2ccccc2)c(C(=O)NC(Cc2ccccc2)C(=O)C(=O)NC2CC2)o1` (centres unmarked) [Compound 459, N-(4-(cyclopropylamino)-3,4-dioxo-1-phenylbutan-2-yl)-2-methyl-4-phenyloxazole-5-carboxamide], for which the IC50 is less than 3 µM in test [1]; less than 3 µM in test [2]; less than 3 µM in test [3]; 10 to 25 µM in test [4]; less than 10 µM in test [5].
On to `CCCCC(NC(=O)c1oc(C)nc1-c1ccccc1)C(=O)C(=O)NC1CC1` (centres unmarked) [Compound 460, N-(1-(cyclopropylamino)-1,2-dioxoheptan-3-yl)-2-methyl-4-phenyloxazole-5-carboxamide], for which the IC50 is less than 3 µM in test [1]; less than 3 µM in test [2]; less than 3 µM in test [3]; more than 25 µM in test [4]; more than 25 µM in test [5].
Consider `O=C(NC1CC1)C(=O)C(Cc1ccccc1)NC(=O)c1cnoc1-c1ccccc1` (centres unmarked) [Compound 461, N-(4-(cyclopropylamino)-3,4-dioxo-1-phenylbutan-2-yl)-5-phenylisoxazole-4-carboxamide], for which the IC50 is less than 3 µM in test [1]; less than 3 µM in test [2]; less than 3 µM in test [3]; less than 10 µM in test [4]; more than 25 µM in test [5].
Turning to `NC(=O)C(=O)C(CCc1ccccc1)NC(=O)c1nsnc1-c1ccccc1` (centres unmarked) [Compound 463, N-(1-amino-1,2-dioxo-5-phenylpentan-3-yl)-4-phenyl-1,2,5-thiadiazole-3-carboxamide], the IC50 was less than 3 µM in test [1]; less than 3 µM in test [2]; less than 3 µM in test [3]; less than 10 µM in test [4]; more than 25 µM in test [5].
As to `NC(=O)C(=O)C(Cc1ccc(F)cc1)NC(=O)c1nsnc1-c1ccccc1` (centres unmarked) [Compound 464, N-(4-amino-1-(4-fluorophenyl)-3,4-dioxobutan-2-yl)-4-phenyl-1,2,5-thiadiazole-3-carboxamide], the IC50 was less than 3 µM in test [1]; less than 3 µM in test [2]; less than 3 µM in test [3]; less than 10 µM in test [4]; less than 10 µM in test [5].

The record behind these values is patent US11339130B1 (Blade Therapeutics, Inc., priority 2016, dated 2022).
